By IC50 is commonly meant the concentration needed to halve the response being measured.

This is an account of results in patent publication US11661403B2, “Oxadiazole compounds” (Vivace Therapeutics, Inc., priority 2018, dated 2023).

For the first experiment, the system named is 8XTBD luciferase reporter (YAP) in HEK293T cells. The experiment in a line: YAP Reporter Assay. Format: cell-based. As to conditions: Homo sapiens, HEK-293T; HEK293T cells stably transfected with 8XTBD luciferase reporter and pRLTK; 24-hr incubation; top concentration 3 μM; read-out: Firefly Luciferase IC50. A general note: Reporter assays use an easily measured gene product as a stand-in for the process of interest.
Turning to `OC(CCl)c1nnc(-c2ccccc2Nc2ccc(C(F)(F)F)cc2)o1` (stereo not shown) [Compound 81, 2-chloro-1-(5-(2-((4-(trifluoromethyl)phenyl)amino)phenyl)-1,3,4-oxadiazol-2-yl)ethan-1-ol], the IC50 was under 100 nM.
For the compound `FC(F)(F)c1ccc(Nc2ccccc2-c2nnc(OC/C=C/Br)o2)cc1` [Compound 82, (E)-2-(5-((3-bromoallyl)oxy)-1,3,4-oxadiazol-2-yl)-N-(4-(trifluoromethyl)phenyl)aniline], the IC50 was 100 to 1000 nM.
Still for that read-out and setting: the same measure for `C#CCOc1nnc(-c2ccccc2Nc2ccc(C(F)(F)F)cc2)o1` [Compound 83, 2-(5-(prop-2-yn-1-yloxy)-1,3,4-oxadiazol-2-yl)-N-(4-(trifluoromethyl)phenyl)aniline]: under 100 nM; for `CC(=O)c1nnc(-c2ccccc2Nc2ccc(C(F)(F)F)cc2)o1` [Compound 85, 1-(5-(2-((4-(trifluoromethyl)phenyl)amino)phenyl)-1,3,4-oxadiazol-2-yl)ethan-1-one]: under 100 nM.
On the same count and under the same terms, the result for `CC1(c2nnc(-c3ccccc3Nc3ccc(C(F)(F)F)cc3)o2)OCCO1` [Compound 86, 2-(5-(2-methyl-1,3-dioxolan-2-yl)-1,3,4-oxadiazol-2-yl)-N-(4-(trifluoromethyl)phenyl)aniline] reads under 100 nM.
Still for that read-out and setting: the same measure for `CON(C)C(=O)C(C)(C)c1nnc(-c2ccccc2Nc2ccc(C(F)(F)F)cc2)o1` [Compound 87, N-methoxy-N,2-dimethyl-2-(5-(2-((4-(trifluoromethyl)phenyl)amino)phenyl)-1,3,4-oxadiazol-2-yl)propanamide]: under 100 nM.
Take `N#CC1(Cc2nnc(-c3ccccc3Nc3ccc(C(F)(F)F)cc3)o2)CC1` [Compound 88, 1-((5-(2-((4-(trifluoromethyl)phenyl)amino)phenyl)-1,3,4-oxadiazol-2-yl)methyl)cyclopropane-1-carbonitrile]: the IC50 was 100 to 1000 nM.
As for `CC(C)(C#N)Cc1nnc(-c2ccccc2Nc2ccc(C(F)(F)F)cc2)o1` [Compound 89, 2,2-dimethyl-3-(5-(2-((4-(trifluoromethyl)phenyl)amino)phenyl)-1,3,4-oxadiazol-2-yl)propanenitrile], the IC50 is 100 to 1000 nM.
Same read-out and setting: the same measure for `CCc1nnc(-c2ccccc2Nc2ccc(C(F)(F)F)cc2)o1` [Compound 90, 2-(5-ethyl-1,3,4-oxadiazol-2-yl)-N-(4-(trifluoromethyl)phenyl)aniline]: 100 to 1000 nM; for `CC(C)NCCc1nnc(-c2ccccc2Nc2ccc(C(F)(F)F)cc2)o1` [Compound 91, 2-(5-(2-(isopropylamino)ethyl)-1,3,4-oxadiazol-2-yl)-N-(4-(trifluoromethyl)phenyl)aniline]: 1000 to 5000 nM.
For `CC(C)N(C#N)CCc1nnc(-c2ccccc2Nc2ccc(C(F)(F)F)cc2)o1` [Compound 93, N-isopropyl-N-(2-(5-(2-((4-(trifluoromethyl)phenyl)amino)phenyl)-1,3,4-oxadiazol-2-yl)ethyl)cyanamide], the IC50 lay in the range of 100 to 1000 nM.
For `CCNCCc1nnc(-c2ccccc2Nc2ccc(C(F)(F)F)cc2)o1` [Compound 94, 2-(5-(2-(ethylamino)ethyl)-1,3,4-oxadiazol-2-yl)-N-(4-(trifluoromethyl)phenyl)aniline], the half-inhibitory concentration (IC50) lay within 1000 to 5000 nM.
On the same count and under the same terms, the same measure for `CCN(C#N)CCc1nnc(-c2ccccc2Nc2ccc(C(F)(F)F)cc2)o1` [Compound 96, N-ethyl-N-(2-(5-(2-((4-(trifluoromethyl)phenyl)amino)phenyl)-1,3,4-oxadiazol-2-yl)ethyl)cyanamide]: under 100 nM.
On to `CC(C)NCc1nnc(-c2ccccc2Nc2ccc(C(F)(F)F)cc2)o1` [Compound 97, 2-(5-((isopropylamino)methyl)-1,3,4-oxadiazol-2-yl)-N-(4-(trifluoromethyl)phenyl)aniline], for which the IC50 was 1000 to 5000 nM.
The same measure, in the same setting: the same measure for `CC(C)N(C#N)Cc1nnc(-c2ccccc2Nc2ccc(C(F)(F)F)cc2)o1` [Compound 99, N-isopropyl-N-((5-(2-((4-(trifluoromethyl)phenyl)amino)phenyl)-1,3,4-oxadiazol-2-yl)methyl)cyanamide]: 100 to 1000 nM.
As for `CCNCc1nnc(-c2ccccc2Nc2ccc(C(F)(F)F)cc2)o1` [Compound 100, 2-(5-((ethylamino)methyl)-1,3,4-oxadiazol-2-yl)-N-(4-(trifluoromethyl)phenyl)aniline], the IC50 was 100 to 1000 nM.
The same measure, in the same setting: the result for `CCN(C#N)Cc1nnc(-c2ccccc2Nc2ccc(C(F)(F)F)cc2)o1` [Compound 102, N-ethyl-N-((5-(2-((4-(trifluoromethyl)phenyl)amino)phenyl)-1,3,4-oxadiazol-2-yl)methyl)cyanamide] reads under 100 nM; that for `CC(C)(C(=O)O)c1nnc(-c2ccccc2Nc2ccc(C(F)(F)F)cc2)o1` [Compound 103, 2-methyl-2-(5-(2-((4-(trifluoromethyl)phenyl)amino)phenyl)-1,3,4-oxadiazol-2-yl)propanoic Acid], 100 to 1000 nM.
Same read-out and setting: the result for `NCCc1nnc(-c2ccccc2Nc2ccc(C(F)(F)F)cc2)o1` [Compound 104, 2-(5-(2-aminoethyl)-1,3,4-oxadiazol-2-yl)-N-(4-(trifluoromethyl)phenyl)aniline] reads 1000 to 5000 nM; that for `C=CC(=O)NCc1nnc(-c2ccccc2Nc2ccc(C(F)(F)F)cc2)o1` [Compound 108, N-((5-(2-((4-(trifluoromethyl)phenyl)amino)phenyl)-1,3,4-oxadiazol-2-yl)methyl)acrylamide], under 100 nM.
Turning to `N#CCNC(=O)c1nnc(-c2ccccc2Nc2ccc(C(F)(F)F)cc2)o1` [Compound 114, N-(cyanomethyl)-5-(2-((4-(trifluoromethyl)phenyl)amino)phenyl)-1,3,4-oxadiazole-2-carboxamide], the concentration for half-maximal inhibition (IC50) is under 100 nM.
Same read-out and setting: the result for `C#CCCNC(=O)c1nnc(-c2ccccc2Nc2ccc(C(F)(F)F)cc2)o1` [Compound 115, N-(but-3-yn-1-yl)-5-(2-((4-(trifluoromethyl)phenyl)amino)phenyl)-1,3,4-oxadiazole-2-carboxamide] reads under 100 nM; that for `C#CCNC(=O)c1nnc(-c2ccccc2Nc2ccc(C(F)(F)F)cc2)o1` [Compound 116, N-(prop-2-yn-1-yl)-5-(2-((4-(trifluoromethyl)phenyl)amino)phenyl)-1,3,4-oxadiazole-2-carboxamide], under 100 nM.
The same measure, in the same setting: the same measure for `C/C=C/c1nnc(-c2ccccc2Nc2ccc(C(F)(F)F)cc2)o1` [Compound 117, (E)-2-(5-(prop-1-en-1-yl)-1,3,4-oxadiazol-2-yl)-N-(4-(trifluoromethyl)phenyl)aniline]: 100 to 1000 nM.
Turning to `O=C(O)Cc1nnc(-c2ccccc2Nc2ccc(C(F)(F)F)cc2)o1` [Compound 119, 2-(5-(2-((4-(trifluoromethyl)phenyl)amino)phenyl)-1,3,4-oxadiazol-2-yl)acetic acid], the IC50 was 100 to 1000 nM.
The same measure, in the same setting: the result for `C#CC(O)Cc1nnc(-c2ccccc2Nc2ccc(C(F)(F)F)cc2)o1` (stereo not shown) [Compound 120, 1-(5-(2-((4-(trifluoromethyl)phenyl)amino)phenyl)-1,3,4-oxadiazol-2-yl)but-3-yn-2-ol] reads under 100 nM; that for `OC(CBr)c1nnc(-c2ccccc2Nc2ccc(C(F)(F)F)cc2)o1` (stereo not shown) [Compound 121, 2-bromo-1-(5-(2-((4-(trifluoromethyl)phenyl)amino)phenyl)-1,3,4-oxadiazol-2-yl)ethan-1-ol], under 100 nM.
Still for that read-out and setting: the result for `FC(F)(F)c1ccc(Nc2ccccc2-c2nnc(C3CO3)o2)cc1` (stereo not shown) [Compound 122, 2-(5-(oxiran-2-yl)-1,3,4-oxadiazol-2-yl)-N-(4-(trifluoromethyl)phenyl)aniline] reads under 100 nM; that for `C=Cc1nnc(-c2ccccc2Nc2ccc(C(F)(F)F)cc2)o1` [Compound 123, N-(4-(trifluoromethyl)phenyl)-2-(5-vinyl-1,3,4-oxadiazol-2-yl)aniline], under 100 nM; that for `C#CCC(O)c1nnc(-c2ccccc2Nc2ccc(C(F)(F)F)cc2)o1` (stereo not shown) [Compound 124, 1-(5-(2-((4-(trifluoromethyl)phenyl)amino)phenyl)-1,3,4-oxadiazol-2-yl)but-3-yn-1-ol], under 100 nM.
Take `N#CCCc1nnc(-c2ccccc2Nc2ccc(C(F)(F)F)cc2)o1` [Compound 126, 3-(5-(2-((4-(trifluoromethyl)phenyl)amino)phenyl)-1,3,4-oxadiazol-2-yl)propanenitrile]: the IC50 lay in the range of 100 to 1000 nM.

Staying with this experiment, now noted: Homo sapiens, HEK-293T; […]; 24-hr incubation; top concentration 3 μM; read-out: Firefly Luciferase IC50.
For `OC(CCl)Cc1nnc(-c2ccccc2Nc2ccc(C(F)(F)F)cc2)o1` (stereo not shown) [Compound 79, 1-chloro-3-(5-(2-((4-(trifluoromethyl)phenyl)amino)phenyl)-1,3,4-oxadiazol-2-yl)propan-2-ol], the IC50 was under 100 nM.
Still for that read-out and setting: the same measure for `OC(CCCl)c1nnc(-c2ccccc2Nc2ccc(C(F)(F)F)cc2)o1` (stereo not shown) [Compound 80, 3-chloro-1-(5-(2-((4-(trifluoromethyl)phenyl)amino)phenyl)-1,3,4-oxadiazol-2-yl)propan-1-ol]: under 100 nM; for `C=CCOc1nnc(-c2ccccc2Nc2ccc(C(F)(F)F)cc2)o1` [Compound 84, 2-(5-(allyloxy)-1,3,4-oxadiazol-2-yl)-N-(4-(trifluoromethyl)phenyl)aniline]: 100 to 1000 nM.
The same measure, in the same setting: the same measure for `CC(C)(C(=O)NCC#N)c1nnc(-c2ccccc2Nc2ccc(C(F)(F)F)cc2)o1` [Compound 110, N-(cyanomethyl)-2-methyl-2-(5-(2-((4-(trifluoromethyl)phenyl)amino)phenyl)-1,3,4-oxadiazol-2-yl)propanamide]: 1000 to 5000 nM.
The same measure, in the same setting: the same measure for `C#CCNC(=O)C(C)(C)c1nnc(-c2ccccc2Nc2ccc(C(F)(F)F)cc2)o1` [Compound 112, 2-methyl-N-(prop-2-yn-1-yl)-2-(5-(2-((4-(trifluoromethyl)phenyl)amino)phenyl)-1,3,4-oxadiazol-2-yl)propanamide]: 1000 to 5000 nM; for `N#CCCNC(=O)c1nnc(-c2ccccc2Nc2ccc(C(F)(F)F)cc2)o1` [Compound 113, N-(2-cyanoethyl)-5-(2-((4-(trifluoromethyl)phenyl)amino)phenyl)-1,3,4-oxadiazole-2-carboxamide]: under 100 nM.
